What was measured:
Type in all cases: functional, Cercopithecidae
Monkey [1] = test: Effect of compound on rate of response maintained by food (3.696 resp/s, +/-9.99%) in monkeys
Monkey [2] = test: Effect of compound on rate of response maintained by food (3.696 resp/s, +/-9.99%) in monkeys at a dose of 3 mL
Monkey [3] = test: Effect of compound on rate of response maintained by cocaine (4.026 resp/s,+/-13.6%) in monkeys at a dose of 6 mL
Monkey [4] = test: Effect of compound on rate of response maintained by cocaine (4.026 resp/s,+/-13.6%) in monkeys at a dose of 3 mL
Monkey [5] = test: Effect of compound on rate of response maintained by cocaine (4.026 resp/s,+/-13.6%) in monkeys

`CCCCCCCCCC(=O)OC(CCN1CCN(CCOC(c2ccc(F)cc2)c2ccc(F)cc2)CC1)c1ccccc1` (stereo not given) showed a Control (Monkey [1]) of 97%, a Control (Monkey [2]) of 82% and a Control (Monkey [3]) of 25.3%. The Control (Monkey [4]) was 74% and the Control (Monkey [5]) was 76.2%.

— ChEMBL document CHEMBL1129406, “Sustained decrease in cocaine-maintained responding in rhesus monkeys with 1-[2-[bis(4-fluorophenyl)methoxy]ethyl]-4-(3-hydroxy-3-phenylpropyl) piperazinyl decanoate, a long-acting ester derivative of GBR 12909” (1996)
